Test results as given in US20090081285A1, “USE OF RADICAL-CAPTURING SUBSTANCES IN A TOPICAL PREPARATION FOR ANTIPYRETIC TREATMENT” (priority 2005, published 2009).
Like-named read-outs stand apart in the source and are kept apart here.

What was measured:
[1] = Radical protection factor (RPF) by electron spin resonance (ESR); format: physicochemical; conditions: in vitro
Excerpt: wherein RF=(S1−S2)/S1; RC=concentration of test substance (radicals/ml); PI=concentration of active substance preparation (mg/ml); S2=signal amplitude of a solution of antioxidant. The radical protection factor is preferably 800×10^14 radicals per mg of preparation, more preferably 30,000×10^14 radicals per mg of preparation.
The radical protection factor (RPF) indicates the activity in binding free radicals by an antioxidant or radical scavenger compared to a test substance.
As set forth above, the radical protection factor (RPF) determines the activity of a substance for binding free radicals as compared with a test substance. The test substance consists of a highly reactive, semi-stable radical which reacts with all known antioxidants. Such radicals include nitroxides such as Proxo (2,2,5,5-tetramethyl-1-dihydropyrrolinoxy nitroxide), Tempol (2,2,6,6-tetramethyl-1-piperidinoxy-4-ol nitroxide), DTBN (di-tert-butyl-nitroxide) or preferably DPPH (1,1-diphenyl-2-picryl-hydrazyl).
The RPF is measured in such a way that the signal amplitude of the test radical is measured by electron spin resonance (ESR/EPR) before and after mixing with an antioxidant/radical scavenger and calculating the RPF therefrom. For a series of standard antioxidants the RPF is well-known.
Ind. […] Starting from the known concentration of test substance (here: DPPH) or the number of its free radicals (radicals per ml), a signal amplitude S1 is measured using an ESR spectrometer. Both test radical and antioxidant are dissolved in a water/alcohol solution (e.g. 0.1 M). Thereafter, the signal amplitude S2 of the antioxidant is measured. The normalized difference between the two signal amplitudes is the reduction factor RF.
The result of the radical reduction of the test substance RC×RF is normalized relative to the quantity of product input PI (mg/ml). RC is the amount of the test substance, i.e., the known number of radicals in the test substance. The radical protection factor is calculated by means of the following equation:
RPF=N×10^14[radicals per mg],
wherein N is a positive real number and RPF for simplification may be reduced to the numerical value of N. This reduction will be used in the examples of the present invention.
The radical protection factor can be determined using an ESR spectrometer (GALENUS GmbH, Berlin, Germany) and is a magnitude for characterizing products with respect to their capability of binding free radicals. The method is an in vitro method in which no individual properties of the user would influence the antioxidants.

[2] = standard antioxidants, RPF stated as well-known; cited from earlier work
[3] = radical scavenger raw materials

Compound | radical protection factor (RPF) [1, 3] | radical protection factor (RPF) [2] | further results
O=C(/C=C/c1ccc(O)c(O)c1)O[C@H](Cc1ccc(O)c(O)c1)C(=O)O [rosmarinic acid] | 36,000-68,000 ×10^14 radicals/mg |  | 
CC(=O)Oc1c(C)c(C)c2c(c1C)CCC(C)(CCC[C@H](C)CCC[C@H](C)CCCC(C)C)O2 (stereo partly drawn) [α-tocopheryl acetate] |  | about 48 ×10^14 radicals/mg | 
O=C(OC[C@H]1O[C@@H](OC(=O)c2cc(O)c(O)c(OC(=O)c3cc(O)c(O)c(O)c3)c2)[C@H](OC(=O)c2cc(O)c(O)c(OC(=O)c3cc(O)c(O)c(O)c3)c2)[C@@H](OC(=O)c2cc(O)c(O)c(OC(=O)c3cc(O)c(O)c(O)c3)c2)[C@@H]1OC(=O)c1cc(O)c(O)c(OC(=O)c2cc(O)c(O)c(O)c2)c1)c1cc(O)c(O)c(OC(=O)c2cc(O)c(O)c(O)c2)c1 [tannic acid] | 310,000 ×10^14 radicals/mg |  | 
CC(=O)OC/C=C(C)/C=C/C=C(C)/C=C/C1=C(C)CCCC1(C)C [all-trans-retinol acetate] |  | 196 ×10^14 radicals/mg | 
O=C1O[C@H]([C@@H](O)CO)C([O-])=C1OP(=O)([O-])[O-].[Na+].[Na+].[Na+] [sodium ascorbyl phosphate] | 35,000 ×10^14 radicals/mg |  | 
Cc1c(C)c2c(c(C)c1O)CCC(C)(CCCC(C)CCCC(C)CCCC(C)C)O2 (racemic) [DL-α-tocopherol] |  | 41,200 ×10^14 radicals/mg | 
cyclodextrins |  |  | radical protection factor (RPF) ([1]; printed without unit (b55-56: RPF=N×10^14 radicals per mg, reduced to N)): 0
CC1=C(/C=C/C(C)=C/C=C/C(C)=C/CO)C(C)(C)CCC1 [all-trans-retinol] |  | 827 ×10^14 radicals/mg | 
